This passage reports EC50 results from ChEMBL document CHEMBL2146429, “Potassium channel modulators as possible treatment for pain: patent highlight” (ACS Med Chem Lett, 2012).

The target in this assay is Voltage-gated potassium channel, KQT; KCNQ2(Kv7.2)/KCNQ3(Kv7.3) (Homo sapiens, UniProt O43525+O43526). In words: Activation of KCNQ2/Q3. Format: protein-complex assay.
Chain of Voltage-gated potassium channel, KQT; KCNQ2(Kv7.2)/KCNQ3(Kv7.3) (O43526 whole entry): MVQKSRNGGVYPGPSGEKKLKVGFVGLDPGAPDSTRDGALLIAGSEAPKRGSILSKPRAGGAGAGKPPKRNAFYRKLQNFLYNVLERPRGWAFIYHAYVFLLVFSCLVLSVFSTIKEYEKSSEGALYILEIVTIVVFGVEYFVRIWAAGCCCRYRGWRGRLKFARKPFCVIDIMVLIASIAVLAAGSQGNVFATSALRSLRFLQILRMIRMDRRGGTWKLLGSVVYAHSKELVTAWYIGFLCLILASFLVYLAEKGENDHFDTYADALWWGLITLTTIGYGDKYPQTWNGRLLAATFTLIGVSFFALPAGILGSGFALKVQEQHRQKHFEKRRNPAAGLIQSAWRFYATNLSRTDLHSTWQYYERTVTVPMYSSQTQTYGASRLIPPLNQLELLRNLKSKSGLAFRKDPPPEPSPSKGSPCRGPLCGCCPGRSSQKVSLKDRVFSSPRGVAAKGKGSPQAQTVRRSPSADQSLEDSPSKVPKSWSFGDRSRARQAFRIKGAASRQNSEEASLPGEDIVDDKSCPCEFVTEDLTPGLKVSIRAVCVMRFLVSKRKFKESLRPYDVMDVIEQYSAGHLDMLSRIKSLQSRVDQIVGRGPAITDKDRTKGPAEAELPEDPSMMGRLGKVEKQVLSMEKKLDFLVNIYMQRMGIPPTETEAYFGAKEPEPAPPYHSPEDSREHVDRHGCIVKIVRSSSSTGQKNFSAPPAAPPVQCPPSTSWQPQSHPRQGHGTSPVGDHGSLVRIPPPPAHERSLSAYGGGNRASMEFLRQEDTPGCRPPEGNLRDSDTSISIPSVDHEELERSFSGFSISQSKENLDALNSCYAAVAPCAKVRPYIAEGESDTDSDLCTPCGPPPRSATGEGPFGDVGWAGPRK
Chain of Voltage-gated potassium channel, KQT; KCNQ2(Kv7.2)/KCNQ3(Kv7.3) (O43525 whole entry): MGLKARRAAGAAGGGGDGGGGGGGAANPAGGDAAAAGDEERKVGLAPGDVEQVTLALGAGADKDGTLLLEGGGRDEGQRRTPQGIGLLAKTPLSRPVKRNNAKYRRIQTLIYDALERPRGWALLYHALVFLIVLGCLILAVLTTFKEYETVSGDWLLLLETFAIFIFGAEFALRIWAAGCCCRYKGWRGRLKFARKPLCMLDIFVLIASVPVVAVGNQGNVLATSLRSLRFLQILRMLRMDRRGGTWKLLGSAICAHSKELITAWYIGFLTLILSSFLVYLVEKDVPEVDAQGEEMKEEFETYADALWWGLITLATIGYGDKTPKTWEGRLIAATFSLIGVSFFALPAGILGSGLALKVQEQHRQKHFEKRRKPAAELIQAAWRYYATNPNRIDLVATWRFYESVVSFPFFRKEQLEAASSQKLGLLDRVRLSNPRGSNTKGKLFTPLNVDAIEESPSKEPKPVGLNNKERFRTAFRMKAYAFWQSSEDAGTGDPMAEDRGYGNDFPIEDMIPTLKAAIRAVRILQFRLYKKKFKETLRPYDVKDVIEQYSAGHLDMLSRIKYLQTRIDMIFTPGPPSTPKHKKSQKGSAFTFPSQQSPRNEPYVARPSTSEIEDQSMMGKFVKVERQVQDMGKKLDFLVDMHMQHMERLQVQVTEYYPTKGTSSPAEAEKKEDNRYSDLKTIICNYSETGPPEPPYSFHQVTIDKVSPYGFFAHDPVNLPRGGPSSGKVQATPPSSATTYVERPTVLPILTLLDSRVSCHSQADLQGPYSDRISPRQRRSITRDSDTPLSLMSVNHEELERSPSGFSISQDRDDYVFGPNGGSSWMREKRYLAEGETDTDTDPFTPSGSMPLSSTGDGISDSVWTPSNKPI
As to `CC(C)(C)CC(=O)Nc1nn2cccnc2c1-c1ccc(F)cc1`, the EC50 is < 1000 nM.

For the molecule `Cc1cnc2c(Cc3ccc(F)cc3)c(NC(=O)CC3CCCC3)nn2c1`, the EC50 is < 100 nM.

For the molecule `CC(C)(C)CC(=O)Nc1nn2cccnc2c1-c1ccc(OC(F)(F)F)cc1`, the EC50 was < 500 nM.
